Results taken from patent publication US20060142247A1, “Tricyclic heterocycles” (priority 2004, published 2006).

Tests used:
Aurora A = biological target: T1, Aurora A (Homo sapiens, UniProt O14965); assay: IC50 determination for inhibitors of Aurora A (96 MTP-ELISA); format: biochemical; conditions: His4-tagged full-length Aurora A 250 ng/ml, PKB-GSK2 200 nM, ATP 4 μM, 90 min room temperature, read-out: IC50 Aurora A kinase inhibition
T1 construct: C-terminally Histidine4 (His4)-tagged Aurora A full-length protein; His4 (C)
T1 sequence (O14965 1-403): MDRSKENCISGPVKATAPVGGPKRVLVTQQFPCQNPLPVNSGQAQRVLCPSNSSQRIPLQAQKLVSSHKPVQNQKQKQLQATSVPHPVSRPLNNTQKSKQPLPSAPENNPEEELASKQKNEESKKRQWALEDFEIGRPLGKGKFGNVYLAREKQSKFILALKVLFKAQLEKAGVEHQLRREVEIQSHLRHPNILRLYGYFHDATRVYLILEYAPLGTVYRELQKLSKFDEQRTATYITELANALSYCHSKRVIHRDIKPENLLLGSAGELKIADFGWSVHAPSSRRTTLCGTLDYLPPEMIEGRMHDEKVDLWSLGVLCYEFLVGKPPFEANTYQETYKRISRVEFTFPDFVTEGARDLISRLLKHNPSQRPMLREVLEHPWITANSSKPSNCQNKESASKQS
Protocol: Aurora A is a serine threonine kinase involved in spindle assembly and chromosome segregation. The assay is a typically ELISA-type assay where biotinylated substrate (PKB-GSK2) is phosphorylated. Phosphorylation is detected by peroxidase (POD) labelled polyclonal antibody (PAK<M-Ig>S-IgG-POD) and phosphopeptide monoclonal antibody (Mab) (MAK<P-GSK>M-27E5-IgG). The assay is validated for IC50-determination.
Assay plates: 96-well polystyrene plates, streptavidin-coated,
Samples: 10 mM in dimethylsulfoxide (DMSO)
Aurora A-His-4: C-terminally Histidine4 (His4)-tagged Aurora A full-length protein, stock solution 0.7 mg/ml, final conc.: 250 ng/ml
PKB-GSK2: biotinylated peptide derived from human GSK3-alpha sequence (Biotin-SGRARTSSFAEPGG-CONH2), stock solution 600 μM, final conc.: 200 nM
PAK<M-Ig>S-IgG-POD: Anti-mouse IgG, horse radish peroxidase(HRP)-linked Antibody, diluted in 3% BSA/PBS-T (1:10000), (Cell Signaling, Cat. No.: 7076)
MAK<P-GSK>M-27E5-IgG: Phospho-GSK-3-alpha (Ser 21) (27E5) Monoclonal Antibody, stock solution 1.85 mg/ml, diluted in 3% BSA/PBS-T (1:6000), final conc.: 0.31 μg/ml, (Cell Signaling, Cat. No.: 9337B)
ATP: Adenosine-5′-triphosphate 1 mM, diluted in kinase buffer, (Roche Diagnostics GmbH, Cat. No.: 127531-001,), final conc.: 4 μM
TRIS: 2-Amino-2-hydroxymethyl-1,3-propoanediol (“tris-(hydroxymethyl)-aminomethane”) (MERCK, Cat. No.: 108382.2500)
BSA: Bovine Serum Albumin Fraction V, fatty acid free (Roche Diagnostics GmbH, Cat. No. 9100221)
EDTA Titriplex III (di-Sodium-EDTA di-Hydrate), 120 mM, (MERCK, Cat. No.: 1.08418.1000)
ABTS buffer: ABTS (2,2′-azino-bis(3-ethylbenzthiazoline-6-sulfonic acid)) 16.7 mg/ml (Roche Diagnostics GmbH, Cat. No.: 1204530) • ABTS tablets: dissolve one ABTS tablet in 50 ml of working solution (ABTS buffer) (Roche Diagnostics GmbH, Cat. No.: 1112422 ) • Tween 20: Polysorbat 20 (Roche Diagnostics GmbH, Cat. No.: 10006394-001) • DTT: 1,4-Dithiothreitol (Roche Diagnostics GmbH, Cat. No.: 197777) • MgCl2×6H2O MERCK, Cat. No.: 105833.1000 • Kinase buffer: 50 mM TRIS, 10 mM MgCl2, 1 mM DTT, 0.1% Tween 20, pH 7.8 PBS-T (=Wash buffer) (PBS-T)10 g/l PBS(Phosphate buffered saline) with 0.033% Tween 20 • 3% BSA/PBS-T: 3% BSA dissolved in PBS-T Method
This assay is performed in 96-well format for IC50 determination with 5 samples (each with 8 concentrations by twofold testing), 100 μl incubation volume and the following plate layout:
S samples, with ATP, 1% DMSO, final conc.: a=100 μM, b=20 μM, c=4 μM, d=0.8 μM, e=0.16 μM, f=0.032 μM, g=0.0064 μM, h=0.00128 μM Step/Action • (1) Sample preparation: add 24 μl per well samples (descending sequence) diluted in kinase buffer to assay plate (final conc. for DMSO 1%). • 2. Add directly 16 μl Aurora-A-his-4 diluted in kinase buffer to assay plate. • 3. Add directly 40 μl per well PKB-GSK2/ATP mixture to assay plate, (final conc.: Aurora A=250 ng/ml, GSK2=200 nM, ATP=4 μM). Negative control: without ATP. • 4. Incubate assay plate for exactly 90 min at room temperature. • 5. Stop reaction by adding 20 μl EDTA in all wells. • 6. Wash assay plate 3× with 200 μl washing buffer per well. • 7. Add 100 μl MAK<P-GSK>M27E5-IgG (1:10000) and PAK<M-Ig>S-IgG-POD (1:6000) dissolved in 3% BSA/PBS-T to assay plate per well. • 8. Incubate assay plate for 60 min at room temperature. • 9. Wash assay plate 3× with 200 μl washing buffer per well • 10. Add 100 μl ABTS solution to assay plate per well, incubate for approx. 4 min at RT on MTP shaker. • 11. Measure absorption at 405/492 nm. • 12. Calculate % inhibition as: (1−(Esample−ENC)/(EPC−ENC))×100 1)
13. Calculate IC50 using a non-linear curve fit (XLfit software (ID Business Solution Ltd., Guilford, Surrey, UK))

HCT 116 cells = assay: Viability assay HCT 116 cells (CellTiter-Glo); format: cell-based; conditions: Homo sapiens, HCT-116, 120 h, HCT 116 human colon carcinoma cells, 5 days incubation, CellTiter-Glo luminescence
Protocol: Viability Assay—HCT 116 Cells
A viability assay was performed using the CellTiter-Glo® Luminescent Cell Viability Assay (see Promega Corporation's Technical Bulletin No. 288, pp. 1-11 [revised 2/04] which is hereby incorporated by reference in its entirety). This assay is a homogeneous method of determining the number of viable cells in culture based on quantitation of the ATP present, an indicator of metabolically active cells. The assay is designed for use with multiwell formats, making it ideal for automated high-throughput screening (HTS), cell proliferation and cytotoxicity assays. The homogeneous assay procedure involves adding a single reagent (containing luciferase, luciferan substrate, and buffer) directly to cells cultured in serum-supplemented medium. Cell washing, removal of medium and multiple pipetting steps are not required. The system detects as few as 15 cells/well in a 384-well format in 10 minutes after adding reagent and mixing.
The homogeneous “add-mix-measure” format results in cell lysis and generation of a luminescent signal proportional to the amount of ATP present. The amount of ATP is directly proportional to the number of cells present in culture. The above-referenced assay generates a “glow-type” luminescent signal, produced by the luciferase reaction, which has a half-life generally greater than five hours, depending on cell type and medium used. The extended half-life eliminates the need to use reagent injectors and provides flexibility for continuous or batch mode processing of multiple plates. The unique homogeneous format avoids errors that may be introduced by other ATP measurement methods that require multiple steps.
HCT 116 cells (human colon carcinoma, ATCC-No. CCl-247) were cultivated in RPMI 1640 medium with GlutaMAX™ I (cell culture media that contains L-Alanyl-L-Glutamine [a stabilized a form/source of L-Glutamine] from Invitrogen, Cat-No. 61870-010), 2.5% Fetal Calf Serum (FCS, Sigma Cat-No. F4135 (FBS)); 100 Units/ml penicillin/100 μg/ml streptomycin (=Pen/Strep from Invitrogen Cat. No. 15140). For the assay the cells were seeded in 384 well plates, 1000 cells per well, in the same medium. The next day the test compounds were added in various concentrations ranging from 30 μM to 0.0015 μM (10 concentrations, 1:3 diluted). After 5 days the viability assay was done according to the instructions of the manufacturer. In brief: the cell-plate was equilibrated to room temperature for approximately 30 minutes and than the reagent (containing luciferase, luciferan substrate, and buffer) was added. The contents were carefully mixed for 15 minutes to induce cell lysis. After 45 minutes the luminescent signal was measured in Victor 2, (scanning multiwell spectrophotometer, Wallac).
Medium: RPMI 1640 with cell culture media containing L-Alanyl-L-Glutamine [GlutaMAX™ I (Invitrogen, Cat-Nr. 61870)], 5% FCS (Sigma Cat.-No. F4135), Pen/Strep (Invitrogen, Cat No. 15140). • HCT116 (ATCC-No. CCl-247): 1000 cells in 60 μl per well of 384 well plate (Greiner 781098, μClear-plate white) • After seeding incubate plates 24 h at 37° C., 5% CO2 2nd. Day: Induction (Treatment with Compounds, 10 Concentrations):
In order to achieve a final concentration of 30 μM as highest concentration […] of 10 mM compound stock solution were added directly to 163 μl media. Then step e) of the dilution procedure described below, was followed.

SMILES	IC50 (Aurora A) [nM]	IC50 (HCT 116 cells) [nM]
CC1(C)CC(=O)Nc2cc3nc(-c4n[nH]c5ccccc45)[nH]c3cc21 [Example 10, 2-(1H-Indazol-3-yl)-8,8-dimethyl-1,5,7,8-tetrahydro-imidazo[4,5-g]quinolin-6-one]	100 to 250	–
CC1(C)C(=O)N(CC(O)CN2CCOCC2)c2cc3[nH]c(-c4n[nH]c5ccccc45)nc3cc21 (stereo not drawn) [Example 29, 5-(2-Hydroxy-3-morpholin-4-yl-propyl)-2-(1H-indazol-3-yl)-7,7-dimethyl-5,7-dihydro-3H-imidazo[4,5-f]indol-6-one]	1 to 100	–
COCCN1C(=O)C(C)(C)c2cc3nc(-c4n[nH]c5ccccc45)[nH]c3cc21 [Example 18, 2-(1H-Indazol-3-yl)-5-(2-methoxy-ethyl)-7,7-dimethyl-5,7-dihydro-3H-imidazo[4,5-f]indol-6-one]	1 to 100	–
CN(C)CCNC(=O)CN1C(=O)C(C)(C)c2cc3nc(-c4n[nH]c5ccccc45)[nH]c3cc21 [Example 38, N-(2-Dimethylamino-ethyl)-2-[2-(1H-indazol-3-yl)-7,7-dimethyl-6-oxo-6,7-dihydro-3H-imidazo[4,5-f]indol-5-yl]-acetamide]	1 to 100	–
CN1CCN(C(=O)CN2C(=O)C(C)(C)c3cc4nc(-c5n[nH]c6ccccc56)[nH]c4cc32)CC1 [Example 42, 2-(1H-Indazol-3-yl)-7,7-dimethyl-5-[2-(4-methyl-piperazin-1-yl)-2-oxo-ethyl]-5,7-dihydro-3H-imidazo[4,5-f]indol-6-one]	1 to 100	–
CC1(C)C(=O)N(CCNC(=O)c2ccccc2)c2cc3[nH]c(-c4n[nH]c5ccccc45)nc3cc21 [Example 53, N-{2-[2-(1H-Indazol-3-yl)-7,7-dimethyl-6-oxo-6,7-dihydro-3H-imidazo[4,5-f]indol-5-yl]-ethyl}-benzamide]	1 to 100	–
CCN1C(=O)C(C)(C)c2cc3nc(-c4n[nH]c5ccc(C(=O)N6CCSC6)cc45)[nH]c3cc21 [Example 96, 5-Ethyl-7,7-dimethyl-2-[5-(thiazolidine-3-carbonyl)-1H-indazol-3-yl]-5,7-dihydro-3H-imidazo[4,5-f]indol-6-one]	–	100 to 1000
CCC(=O)Nc1ccc2[nH]nc(-c3nc4cc5c(cc4[nH]3)C(C)(C)C(=O)N5CC)c2c1 [Example 122, N-[3-(5-Ethyl-7,7-dimethyl-6-oxo-1,5,6,7-tetrahydro-imidazo[4,5-f]indol-2-yl)-1H-indazol-5-yl]-propionamide]	–	100 to 1000
CCN1C(=O)C(C)(C)c2cc3nc(-c4n[nH]c5ccc(NS(=O)(=O)c6cc(F)ccc6F)cc45)[nH]c3cc21 [Example 141, N-[3-(5-Ethyl-7,7-dimethyl-6-oxo-3,5,6,7-tetrahydro-imidazo[4,5-f]indol-2-yl)-1H-indazol-5-yl]-2,5-difluoro-benzenesulfonamide]	–	100 to 1000
C[S+]([O-])CCN1C(=O)C(C)(C)c2cc3nc(-c4n[nH]c5ccccc45)[nH]c3cc21 (stereo not drawn) [Example 64, 2-(1H-Indazol-3-yl)-5-(2-methanesulfinyl-ethyl)-7,7-dimethyl-5,7-dihydro-3H-imidazo[4,5-f]indol-6-one]	–	1000 to 10000
CC1(C)C(=O)N(CC2CC2)c2cc3[nH]c(-c4n[nH]c5ccccc45)nc3cc21 [Example 1, 5-Cyclopropylmethyl-2-(1H-indazol-3-yl)-7,7-dimethyl-5,7-dihydro-3H-imidazo[4,5-f]indol-6-one]	–	100 to 1000
CCN1C(=O)C(C)(C)c2cc3nc(-c4n[nH]c5cc(C(=O)Nc6ccccc6)ccc45)[nH]c3cc21 [Example 108, 3-(5-Ethyl-7,7-dimethyl-6-oxo-3,5,6,7-tetrahydro-imidazo[4,5-f]indol-2-yl)-1H-indazole-6-carboxylic acid phenylamide]	–	100 to 1000
